Among the data in patent US12297194B2, “N2-phenylpyrimidine-2,4-diamine compounds, and preparation methods and methods of use thereof” (BRIDGE BIOTHERAPEUTICS, INC., priority 2021, dated 2025) are GI50 values, retold here.

What all share (format): cell-based, murine
For assay [1], the target named is Ba/F3 EGFR Wild-type (Homo sapiens, UniProt P00533). As to the kind of experiment: CellTiter-Glo cell viability, Ba/F3 EGFR wild-type cells. The note with it: 72 hours, read-out: Ba/F3 EGFR mutant cell (IC50, nM) WT. In a few lines: (§1)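 IC50s come from CellTiter-Glo ATP luminescence after 72 h of compound exposure (0, 0.3 up to 2000 nM, 10 concentrations). Ba/F3 lines carried wild-type or mutant EGFR and were plated at 2500 cells/well one day before treatment.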
On the technique in general: Cellular ATP, detected with luciferase, serves as a proxy for viable cell number.

The target in assay [2] is Ba/F3 EGFR L858R/C797S mutants (Homo sapiens, UniProt P00533, C797S/L858R, cells depend on it). As to the kind of experiment: CellTiter-Glo cell viability, Ba/F3 EGFR L858R/C797S cells. As to conditions: 72 hours, read-out: Ba/F3 EGFR mutant cell (IC50, nM) L/C. In outline: as §1
The target of assay [3] is Ba/F3 EGFR L858R/T790M/C797S mutants (Homo sapiens, UniProt P00533, T790M/C797S/L858R, cells depend on it). Kind of assay: CellTiter-Glo cell viability, Ba/F3 EGFR L858R/T790M/C797S cells. As to conditions: 72 hours, read-out: Ba/F3 EGFR mutant cell (IC50, nM) L/T/C. In a few lines:
as §1

The target in assay [4] is Ba/F3 EGFR Del19/T790M mutants (Homo sapiens, UniProt P00533, T790M, cells depend on it, form not given). As to the kind of experiment: CellTiter-Glo cell viability, Ba/F3 EGFR Del19/T790M cells. As to conditions: 72 hours, read-out: Ba/F3 EGFR mutant cell (IC50, nM) D/T. In outline:
as §1

For assay [5], the target named is Ba/F3 EGFR Del19/C797S mutants (Homo sapiens, UniProt P00533, C797S, cells depend on it, form not given). Kind of assay: CellTiter-Glo cell viability, Ba/F3 EGFR Del19/C797S cells. As to conditions: 72 hours, read-out: Ba/F3 EGFR mutant cell (IC50, nM) D/C. In a few lines: as §1
In assay [6] the target is Ba/F3 EGFR Del19/T790M/C797S mutants (Homo sapiens, UniProt P00533, T790M/C797S, cells depend on it, form not given). As to the kind of experiment: CellTiter-Glo cell viability, Ba/F3 EGFR Del19/T790M/C797S cells. As to conditions: 72 hours, read-out: Ba/F3 EGFR mutant cell (IC50, nM) D/T/C. In a few lines:
as §1

Chain of Ba/F3 EGFR L858R/T790M/C797S mutants (P00533 whole entry T790M/C797S/L858R): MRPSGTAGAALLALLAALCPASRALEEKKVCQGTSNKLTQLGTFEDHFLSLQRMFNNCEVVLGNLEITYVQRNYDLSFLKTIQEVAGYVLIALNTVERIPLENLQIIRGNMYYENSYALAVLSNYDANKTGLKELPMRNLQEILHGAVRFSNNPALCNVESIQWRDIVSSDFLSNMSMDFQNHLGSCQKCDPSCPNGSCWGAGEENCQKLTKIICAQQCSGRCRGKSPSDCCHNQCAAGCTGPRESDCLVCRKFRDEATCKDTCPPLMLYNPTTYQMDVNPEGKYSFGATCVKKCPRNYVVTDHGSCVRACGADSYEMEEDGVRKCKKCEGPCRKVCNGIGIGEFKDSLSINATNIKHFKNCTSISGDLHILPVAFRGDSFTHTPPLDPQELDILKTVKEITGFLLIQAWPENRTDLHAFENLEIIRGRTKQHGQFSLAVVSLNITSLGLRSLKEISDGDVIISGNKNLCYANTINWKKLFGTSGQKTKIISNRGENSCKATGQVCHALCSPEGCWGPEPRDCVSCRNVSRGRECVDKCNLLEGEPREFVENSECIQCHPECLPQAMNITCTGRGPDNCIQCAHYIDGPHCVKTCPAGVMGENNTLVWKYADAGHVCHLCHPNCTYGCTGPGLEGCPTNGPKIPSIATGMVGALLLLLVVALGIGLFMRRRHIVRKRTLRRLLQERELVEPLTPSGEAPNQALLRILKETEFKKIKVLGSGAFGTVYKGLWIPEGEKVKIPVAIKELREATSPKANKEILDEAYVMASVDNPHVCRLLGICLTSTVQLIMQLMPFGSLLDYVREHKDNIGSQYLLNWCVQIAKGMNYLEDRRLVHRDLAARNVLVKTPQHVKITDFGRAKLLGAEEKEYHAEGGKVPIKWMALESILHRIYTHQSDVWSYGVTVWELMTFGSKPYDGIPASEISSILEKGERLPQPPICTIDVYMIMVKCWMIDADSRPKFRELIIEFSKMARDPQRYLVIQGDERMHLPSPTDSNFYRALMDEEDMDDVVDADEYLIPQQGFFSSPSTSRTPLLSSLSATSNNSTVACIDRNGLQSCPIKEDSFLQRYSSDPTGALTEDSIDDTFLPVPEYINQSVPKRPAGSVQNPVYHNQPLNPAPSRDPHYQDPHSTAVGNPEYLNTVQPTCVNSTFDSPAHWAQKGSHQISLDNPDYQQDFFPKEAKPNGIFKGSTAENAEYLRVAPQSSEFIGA
Chain of Ba/F3 EGFR L858R/C797S mutants (P00533 whole entry C797S/L858R): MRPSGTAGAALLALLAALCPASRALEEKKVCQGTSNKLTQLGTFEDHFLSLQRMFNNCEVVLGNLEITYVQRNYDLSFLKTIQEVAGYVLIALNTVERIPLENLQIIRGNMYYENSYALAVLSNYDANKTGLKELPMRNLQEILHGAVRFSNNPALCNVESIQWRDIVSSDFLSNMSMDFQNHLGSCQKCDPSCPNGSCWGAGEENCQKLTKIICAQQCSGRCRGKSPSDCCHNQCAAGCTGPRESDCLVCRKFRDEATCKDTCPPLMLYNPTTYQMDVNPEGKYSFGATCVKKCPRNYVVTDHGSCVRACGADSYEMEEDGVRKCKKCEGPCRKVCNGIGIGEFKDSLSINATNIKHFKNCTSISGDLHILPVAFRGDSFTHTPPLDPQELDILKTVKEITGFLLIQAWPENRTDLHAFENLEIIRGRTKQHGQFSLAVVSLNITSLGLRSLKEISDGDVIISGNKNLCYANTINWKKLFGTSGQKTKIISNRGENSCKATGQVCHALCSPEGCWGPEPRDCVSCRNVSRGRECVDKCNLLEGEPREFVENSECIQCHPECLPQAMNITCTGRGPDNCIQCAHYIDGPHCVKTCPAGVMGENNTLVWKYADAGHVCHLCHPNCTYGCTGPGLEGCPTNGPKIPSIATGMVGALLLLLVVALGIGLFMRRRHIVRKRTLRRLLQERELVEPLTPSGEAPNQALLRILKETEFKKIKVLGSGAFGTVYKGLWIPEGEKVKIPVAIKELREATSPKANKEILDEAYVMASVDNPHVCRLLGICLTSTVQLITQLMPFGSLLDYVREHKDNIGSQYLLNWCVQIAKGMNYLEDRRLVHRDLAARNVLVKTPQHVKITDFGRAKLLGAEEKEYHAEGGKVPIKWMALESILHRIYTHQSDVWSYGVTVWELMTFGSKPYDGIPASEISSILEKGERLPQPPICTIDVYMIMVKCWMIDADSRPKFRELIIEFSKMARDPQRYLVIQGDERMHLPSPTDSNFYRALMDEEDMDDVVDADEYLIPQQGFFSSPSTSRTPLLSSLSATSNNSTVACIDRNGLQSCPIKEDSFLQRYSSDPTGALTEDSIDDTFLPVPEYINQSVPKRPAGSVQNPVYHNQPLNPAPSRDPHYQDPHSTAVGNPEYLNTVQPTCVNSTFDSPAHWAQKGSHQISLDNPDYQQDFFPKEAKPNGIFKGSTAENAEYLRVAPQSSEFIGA
Chain of Ba/F3 EGFR Wild-type (P00533 whole entry, change not shown): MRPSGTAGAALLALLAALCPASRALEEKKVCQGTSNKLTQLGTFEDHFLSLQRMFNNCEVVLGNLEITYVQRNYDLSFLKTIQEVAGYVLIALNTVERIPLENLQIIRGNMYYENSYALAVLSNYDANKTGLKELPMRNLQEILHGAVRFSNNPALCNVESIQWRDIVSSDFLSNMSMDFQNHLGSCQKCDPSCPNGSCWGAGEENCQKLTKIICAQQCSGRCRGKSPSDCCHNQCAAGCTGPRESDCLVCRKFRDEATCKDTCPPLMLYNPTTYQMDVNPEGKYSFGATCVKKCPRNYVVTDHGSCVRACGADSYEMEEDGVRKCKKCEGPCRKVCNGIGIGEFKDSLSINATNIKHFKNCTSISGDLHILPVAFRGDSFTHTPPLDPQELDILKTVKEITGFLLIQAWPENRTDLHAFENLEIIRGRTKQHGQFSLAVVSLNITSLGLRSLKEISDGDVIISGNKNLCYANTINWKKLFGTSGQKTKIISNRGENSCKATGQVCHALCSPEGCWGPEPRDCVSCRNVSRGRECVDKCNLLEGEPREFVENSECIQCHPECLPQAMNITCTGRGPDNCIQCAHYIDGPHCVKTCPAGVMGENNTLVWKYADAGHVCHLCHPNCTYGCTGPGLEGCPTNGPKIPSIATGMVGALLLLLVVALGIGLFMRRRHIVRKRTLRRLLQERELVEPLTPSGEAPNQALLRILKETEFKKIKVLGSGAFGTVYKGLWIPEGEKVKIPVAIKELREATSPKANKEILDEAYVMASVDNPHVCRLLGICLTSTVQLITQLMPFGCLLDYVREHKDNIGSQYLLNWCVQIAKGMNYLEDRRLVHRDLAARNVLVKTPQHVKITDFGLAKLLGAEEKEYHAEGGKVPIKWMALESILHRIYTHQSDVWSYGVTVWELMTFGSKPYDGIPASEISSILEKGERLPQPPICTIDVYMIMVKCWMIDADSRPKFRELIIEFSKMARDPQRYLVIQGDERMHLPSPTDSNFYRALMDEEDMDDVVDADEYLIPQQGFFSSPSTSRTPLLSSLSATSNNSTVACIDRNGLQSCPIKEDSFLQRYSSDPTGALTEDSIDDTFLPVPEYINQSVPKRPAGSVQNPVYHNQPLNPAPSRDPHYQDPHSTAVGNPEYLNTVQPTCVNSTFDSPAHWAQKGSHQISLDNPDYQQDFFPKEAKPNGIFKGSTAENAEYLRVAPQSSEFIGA
Chain of Ba/F3 EGFR Del19/T790M/C797S mutants (P00533 with tags, fused parts or gaps DEL746-750/T790M/C797S, form open): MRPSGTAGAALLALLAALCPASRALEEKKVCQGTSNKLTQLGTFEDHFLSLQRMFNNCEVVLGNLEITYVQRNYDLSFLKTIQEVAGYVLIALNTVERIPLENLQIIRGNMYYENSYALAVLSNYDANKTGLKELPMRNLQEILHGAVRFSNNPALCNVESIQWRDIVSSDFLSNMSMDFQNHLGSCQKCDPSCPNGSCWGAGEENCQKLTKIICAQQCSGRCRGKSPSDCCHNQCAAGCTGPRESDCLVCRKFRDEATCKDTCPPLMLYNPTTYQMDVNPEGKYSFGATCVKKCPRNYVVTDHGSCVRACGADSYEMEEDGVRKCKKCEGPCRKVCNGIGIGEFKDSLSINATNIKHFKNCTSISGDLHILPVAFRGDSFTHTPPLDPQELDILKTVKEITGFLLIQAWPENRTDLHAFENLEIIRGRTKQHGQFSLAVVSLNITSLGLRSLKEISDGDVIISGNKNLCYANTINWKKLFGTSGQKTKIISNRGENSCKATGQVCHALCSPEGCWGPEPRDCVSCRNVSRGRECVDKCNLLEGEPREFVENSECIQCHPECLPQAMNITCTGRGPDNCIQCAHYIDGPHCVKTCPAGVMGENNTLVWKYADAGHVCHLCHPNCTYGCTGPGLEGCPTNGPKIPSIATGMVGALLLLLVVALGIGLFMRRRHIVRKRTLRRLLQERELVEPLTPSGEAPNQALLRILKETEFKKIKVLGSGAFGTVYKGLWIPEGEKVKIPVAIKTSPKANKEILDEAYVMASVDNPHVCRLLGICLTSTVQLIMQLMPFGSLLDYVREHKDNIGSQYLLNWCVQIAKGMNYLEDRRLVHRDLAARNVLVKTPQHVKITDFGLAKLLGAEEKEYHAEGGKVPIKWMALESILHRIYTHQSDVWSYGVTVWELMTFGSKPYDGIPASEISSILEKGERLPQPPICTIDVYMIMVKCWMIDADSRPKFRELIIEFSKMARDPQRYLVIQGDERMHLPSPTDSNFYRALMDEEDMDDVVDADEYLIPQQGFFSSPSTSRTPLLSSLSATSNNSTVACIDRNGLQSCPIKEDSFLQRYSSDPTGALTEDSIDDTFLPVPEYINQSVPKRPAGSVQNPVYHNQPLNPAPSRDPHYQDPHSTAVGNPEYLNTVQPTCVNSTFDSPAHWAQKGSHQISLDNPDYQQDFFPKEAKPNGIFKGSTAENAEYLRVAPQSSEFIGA

For `CCCc1cc(Nc2ncc(Br)c(Nc3ccc4nccnc4c3NS(C)(=O)=O)n2)c(OC)cc1N1CCC(N(C)C)CC1` [Example B13, N-(6-((5-bromo-2-((4-(4-(dimethylamino)piperidin-1-yl)-2-methoxy-5-propylphenyl)amino)pyrimidin-4-yl)amino)quinoxalin-5-yl)methanesulfonamide], the GI50 in assay [1] was found to be 468 nM; in assay [2], 114 nM; in assay [3], 22 nM; in assay [4] it was 13 nM; in assay [5], 41 nM; in assay [6] it was 60 nM.

On to `CCc1cc(Nc2ncc(Cl)c(Nc3ccc4nccnc4c3NS(C)(=O)=O)n2)c(OC)cc1N1CCC(N2CC3CCC2CN3C)CC1` (stereo not drawn) [Example A45, N-(6-((5-chloro-2-((5-ethyl-2-methoxy-4-(4-(5-methyl-2,5-diazabicyclo[2.2.2]octan-2-yl)piperidin-1-yl)phenyl)amino)pyrimidin-4-yl)amino)quinoxalin-5-yl)methanesulfonamide], for which the GI50 in assay [1] stood at 734 nM; in assay [2], 103 nM; in assay [3], 71 nM; in assay [4], 9 nM; in assay [5] it was 10 nM; in assay [6] it was 7 nM.

Take `COc1cc(N2CCC(N3CCOCC3)CC2)c(C)cc1Nc1ncc(Cl)c(Nc2ccc3nccnc3c2NS(C)(=O)=O)n1` [Example A31, N-(6-((5-chloro-2-((2-methoxy-5-methyl-4-(4-morpholinopiperidin-1-yl)phenyl)amino)pyrimidin-4-yl)amino)quinoxalin-5-yl)methanesulfonamide]: the GI50 in assay [1] is 223 nM; in assay [2] it was 79 nM; in assay [3], 43 nM; in assay [4], 39 nM; in assay [5], 50 nM; in assay [6], 131 nM.

Turning to `CCc1cc(Nc2ncc(Br)c(Nc3ccc4nccnc4c3N(C)S(C)(=O)=O)n2)c(OC)cc1N1CC2CCC1CN2C(C)C` (stereo not drawn) [Example B30, N-(6-((5-bromo-2-((5-ethyl-4-(5-isopropyl-2,5-diazabicyclo[2.2.2]octan-2-yl)-2-methoxyphenyl)amino)pyrimidin-4-yl)amino)quinoxalin-5-yl)-N-methylmethanesulfonamide], the GI50 was determined as 233 nM in assay [1]; 23 nM in assay [2]; 71 nM in assay [3]; 7 nM in assay [4]; 11 nM in assay [5]; 2 nM in assay [6].

For `COc1cc(C2=CCNCC2)c(C)cc1Nc1ncc(Br)c(Nc2ccc3nccnc3c2NS(C)(=O)=O)n1` [Example D2], the GI50 in assay [1] was 1430 nM; in assay [2] it was 771 nM; in assay [3], 330 nM; in assay [4], 342 nM; in assay [5], 462 nM; in assay [6], 710 nM.

For the molecule `CN[C@@H]1CN(c2ccc(Nc3ncc(Cl)c(Nc4ccc5nccnc5c4NS(C)(=O)=O)n3)c(OC)c2)C[C@H]1F` [Example D5], the GI50 in assay [1] is 1720 nM; in assay [2] it was 680 nM; in assay [3] it was 1320 nM; in assay [4], 466 nM; in assay [5], 595 nM; in assay [6], 699 nM.

Consider `CCc1cc(Nc2ncc(Br)c(Nc3ccc4nccnc4c3N(C)S(C)(=O)=O)n2)c(OC)cc1N1CCC(N2CCN(C)CC2)CC1` [Example A10, N-(6-((5-bromo-2-((5-ethyl-2-methoxy-4-(4-(4-methylpiperazin-1-yl)piperidin-1-yl)phenyl)amino)pyrimidin-4-yl)amino)quinoxalin-5-yl)-N-methylmethane sulfonamide], for which the GI50 in assay [1] amounted to 400 nM; in assay [2] it was 37 nM; in assay [3], 9 nM; in assay [4], 5 nM; in assay [5], 16 nM; in assay [6], 4 nM.

As for `CCc1cc(Nc2ncc(Cl)c(Nc3ccc4nccnc4c3N(C)S(C)(=O)=O)n2)c(OC)cc1N1CCC(N2CCCC2)CC1` [Example A43, N-(6-((5-chloro-2-((5-ethyl-2-methoxy-4-(4-(pyrrolidin-1-yl)piperidin-1-yl)phenyl)amino)pyrimidin-4-yl)amino)quinoxalin-5-yl)-N-methylmethanesulfonamide], the GI50 in assay [1] came out at 507 nM; in assay [2] it was 28 nM; in assay [3], 35 nM; in assay [4], 8 nM; in assay [5], 6 nM; in assay [6], 5 nM.

`COc1cc(N2CCC(N3CCN(C)CC3)CC2)c(C)cc1Nc1ncc(Br)c(Nc2ccc3nccnc3c2NS(=O)(=O)C2CC2)n1` [Example A19, N-(6-((5-bromo-2-((2-methoxy-5-methyl-4-(4-(4-methylpiperazin-1-yl)piperidin-1-yl)phenyl)amino)pyrimidin-4-yl)amino)quinoxalin-5-yl)cyclopropanesulfonamide]: the GI50 was found to be 395 nM in assay [1]; 80 nM in assay [2]; 43 nM in assay [3]; 6 nM in assay [4]; 66 nM in assay [5]; 24 nM in assay [6].

As for `CCc1cc(Nc2ncc(Br)c(Nc3ccc4nccnc4c3N(C)S(C)(=O)=O)n2)c(OC(C)C)cc1C1CCN(C)CC1` [Example B32, N-(6-((5-bromo-2-((5-ethyl-2-isopropoxy-4-(1-methylpiperidin-4-yl)phenyl)amino)pyrimidin-4-yl)amino)quinoxalin-5-yl)-N-methylmethanesulfonamide], the GI50 amounted to 851 nM in assay [1]; 200 nM in assay [2]; 83 nM in assay [3]; 154 nM in assay [4]; 172 nM in assay [5]; 29 nM in assay [6].

With `COc1cc(C2CCNCC2)ccc1Nc1ncc(Br)c(Nc2ccc3nccnc3c2NS(C)(=O)=O)n1` [Example B18, N-(6-((5-bromo-2-((2-methoxy-4-(piperidin-4-yl)phenyl)amino)pyrimidin-4-yl)amino)quinoxalin-5-yl)methanesulfonamide], the GI50 in assay [1] is greater than 2000 nM; in assay [2], 1020 nM; in assay [3], 1440 nM; in assay [4], 598 nM; in assay [5], 725 nM; in assay [6], 818 nM.

`CCc1cc(Nc2ncc(Br)c(Nc3ccc4nccnc4c3N(C)S(C)(=O)=O)n2)c(OC)cc1N1CCN(C2CCN(C)CC2)CC1` [Example A49, N-(6-((5-bromo-2-((5-ethyl-2-methoxy-4-(4-(1-methylpiperidin-4-yl)piperazin-1-yl)phenyl)amino)pyrimidin-4-yl)amino)quinoxalin-5-yl)-N-methylmethane sulfonamide]: the GI50 was determined as 243 nM in assay [1]; 15 nM in assay [2]; 64 nM in assay [3]; 4 nM in assay [4]; 10 nM in assay [5]; 4 nM in assay [6].

Turning to `COc1cc(N2CCC(N3CCCC3)CC2)c(C)cc1Nc1ncc(Cl)c(Nc2ccc3c(c2NS(C)(=O)=O)OCCO3)n1` [Example C27, N-(6-((5-chloro-2-((2-methoxy-5-methyl-4-(4-(pyrrolidin-1-yl)piperidin-1-yl)phenyl)amino)pyrimidin-4-yl)amino)-2,3-dihydrobenzo[b][1,4]dioxin-5-yl)methanesulfonamide], the GI50 came out at 565 nM in assay [1]; 43 nM in assay [2]; 48 nM in assay [3]; 16 nM in assay [4]; 10 nM in assay [5]; 15 nM in assay [6].
